Assay results reported in patent US20120040976A1, “SMALL MOLECULE IMMUNOMODULATORS FOR ALZHEIMER'S DISEASE” (HUMAN BIOMOLECULAR RESEARCH INSTITUTE, priority 2008, published 2012).
Like-named read-outs stand apart in the source and are kept apart here.

Experiments:
TLR 5 = TLR 5 transcription ratio, AD patient / control PBMCs (qPCR); assay type: cell-based, human; details: Aβ stimulation
Description: (§1) qPCR reactions of cultured monocyte cDNAs. One μL total cellular cDNA per reaction is used in triplicate reactions for each test gene, and for each culture treatment. SYBR-Green reactions were run on a Continuous Fluorescence real-time thermocycler and analyzed. Cycle threshold (Ct) values are recorded for each replicate reaction, and are then averaged and normalized against mean Ct values from one or more control genes. Fold-expression differences relative to untreated cells are determined using the 2^−ΔΔCt method as previously described. Data from the curcumin concentration range are plotted in order to determine EC50 values (concentrations producing one-half maximal stimulant activity), which are used for comparisons of potency between different compounds. Data are also evaluated for each gene with regard to sensitivity, maximally effective concentration of curcuminoid, response to Aβ, and overall magnitude of fold-expression changes.
(§2) MGAT3 and/or TLR transcription were tested by qPCR in human monocyte cells treated with curcuminoids and compared the results to those treated with vehicle (Table 7). As discussed above, activation or up-regulation of macrophage MGAT3 or TLR's results in many functional outcomes, including the enhancement of […] and removal of Aβ, increased apoptosis, secretion of inflammatory cytokines, and other anti-AD antimicrobial activities. […]

MGAT3 [1] = assay: MGAT3 transcription ratio, AD patient / control PBMCs (qPCR); assay type: cell-based, human; details: Aβ stimulation
Procedure, shortened: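 Via qPCR on cultured human monocyte cDNA, curcuminoid-treated versus vehicle, with Aβ stimulation, in AD patient and control cells. SYBR-Green triplicate reactions; Ct averaged, normalised to control genes, fold change by 2^−ΔΔCt. EC50 taken from curcumin concentration-response data.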

TLR 8 = TLR 8 transcription ratio, AD patient / control PBMCs (qPCR); assay type: cell-based, human; details: Aβ stimulation
Description: as §1, §2

Average solubility = assay type: physicochemical
TLR 9 = TLR 9 transcription ratio, AD patient / control PBMCs (qPCR); assay type: cell-based, human; details: Aβ stimulation
Description: as §1, §2

[2] = Chemical stability (H2O, pH 7.4); assay type: physicochemical
TLR3 = TLR3 gene expression by qPCR in U-937 human monocytic cells treated with curcumins plus Aβ; assay type: cell-based
Description: (§3) Cell culture conditions for monocytic cell lines. Human and mouse monocyte cell lines are grown in RPMI-1640 medium with 10% fetal bovine serum (FBS), plus glutamine and pen/strep. For treatment with compounds (curcuminoids+/−Aβ), replicate sets of 0.5-1.0 mL cultures containing 1-2×10^6 cells are set up in the wells of 48-well tissue culture plates. Both replicate sets have at least one control well receiving no added curcuminoid to provide baseline expression controls for untreated, and Aβ-only treated cells. Remaining wells receive curcuminoid in a range of 10-fold serial dilutions in DMSO, typically from […] Cultures are incubated for 20-24 hours (“overnight”) at 37° C. in atmosphere with 5% CO2. After one overnight, to one of replicate sets of cultures is added Aβ (1-42) peptide to a final concentration of 5 μg/mL.
(§4) RNA isolation and cDNA synthesis. After the first overnight incubation in the presence of curcuminoid, cells from one replicate set of wells are collected by centifugation. RNAs are extracted from pelleted cells using miniprep column kits following manufacturer's protocol for animal cells. […] of total cellular RNA from each well is quantitated using a Nanodrop spectrophotometer, and first-strand total cDNA is prepared from 0.3-1.0 μg RNA by random-hexamer priming. Following the second 20 hr. incubation in the presence of Aβ, RNA extractions and cDNA synthesis are similarly performed.
(§5) Assay development. Gene-specific mRNA levels are determined using a real-time thermocycler, and by normalizing to expression of one or more control genes. Assays for quantifying mRNA levels are based on gene sequences reported in NCBI Genbank. PCR oligonucleotide primers are selected spanning introns to minimize the opportunity for amplication from any contaminating genomic DNA in the RNA preps. Oligonucleotides are typically tested and used at a concentration of 200 nM in qPCR reactions containing SYBR dye. Control reactions include template from cDNA synthesis reactions either + or − reverse transcriptase (RT), as well as no-template controls (ntc). All reactions are performed in triplicate. Reactions are typically run with 40 cycles of 95° C. (10 sec) and 58° C. (30 sec). Melt curves based on incremental 0.5° C. increases are determined for new assays to test for uniformity of amplified products. Reaction conditions are modified as needed depending on initial test results. ‘Working’ assays are selected based on clear RNA-dependent amplification and absence of product in ‘ntc’ reactions. The following assay primers are used: […]
as §1
(§6) Data showing in vitro up-regulation of genes associated with Aβ phagocytosis in response to curcumins. Natural curcumins and synthetic analogs were tested in U-937 human monocyte cells in vitro for their ability to modulate expression of the genes MGAT3 and TLRs −2, −3, and −4. […]

TLR 7 = TLR 7 transcription ratio, AD patient / control PBMCs (qPCR); assay type: cell-based, human; details: Aβ stimulation
Description: as §1, §2

[3] = tested on: human monocytic cell line U-937; assay: Protection of U-937 cells against oxidative stress (H2O2, Trypan-blue viability); assay type: cell-based
Description: Protective effect of curcumin against oxidative stress. We tested the potential of curcumin to protect cells in vitro under conditions of oxidative stress. Natural curcumin has been reported to have antioxidant activity and to scavenge free radicals, but reports of the direct effects of curcumin or analogs upon cell viability under conditions of oxidative stress are limited. Viability of the human monocytic cell line U-937 was evaluated in the presence of H2O2, plus varying concentrations of natural BDC (range 0-10 nM). We observed that these cells are more sensitive to oxidative stress than are the neuroblastoma SHSY5Y cells, and so reduced concentrations of H2O2 were used for this experiment. […] However, concentrations of BDC between 0.1-10 nM (i.e. similar concentration range inducing maximal gene expression increases +Aβ in these cells) increased 2-hour cell survival rates up to 90%. […] Assays such as Trypan-blue staining, or other biochemical measures of cell toxicity/survival (e.g. ATP levels) may be useful for evaluating curcumin analogs for their neuroprotective effects against oxidative stress and as candidate AD or ALS drugs.

VDR = VDR gene expression by qPCR in U-937 human monocytic cells treated with curcumins plus Aβ; assay type: cell-based
Description: as §3, §4, §5, §1, §6

MGAT3 [4] = assay: MGAT3 gene expression by qPCR in U-937 human monocytic cells treated with curcumins plus Aβ; assay type: cell-based; details: human monocytic cells (U-937), curcumin plus Aβ
Description: as §3, §4
as §5, with “All reactions are performed in triplicate. Reactions are typically run with 40 cycles of 95° C. (10 sec) and 58° C. (30 sec).” left out, “products.” for “products. Reaction conditions are modified as needed depending on initial test results. ‘Working’ assays are selected based on clear RNA-dependent amplification and absence of product in ‘ntc’ reactions. The following assay primers are used:”
qPCR reactions of cultured monocyte cDNAs. […] SYBR-Green reactions were run on a Continuous Fluorescence real-time thermocycler and analyzed. Cycle threshold (Ct) values are recorded for each replicate reaction, and are then averaged and normalized against mean Ct values from one or more control genes. Fold-expression differences relative to untreated cells are determined using the 2^−ΔΔCt method as previously described. […] Data are also evaluated for each gene with regard to sensitivity, maximally effective concentration of curcuminoid, response to Aβ, and overall magnitude of fold-expression changes. […]

TLR4 = TLR4 gene expression by qPCR in U-937 human monocytic cells treated with curcumins plus Aβ; assay type: cell-based; details: human monocytic cells (U-937), curcumin plus Aβ
Description: as §3, §4, §5
qPCR reactions of cultured monocyte cDNAs. One μL total cellular cDNA per reaction is used in triplicate reactions for each test gene, and for each culture treatment. SYBR-Green reactions were run on a Continuous Fluorescence real-time thermocycler and analyzed. Cycle threshold (Ct) values are recorded for each replicate reaction, and are then averaged and normalized against mean Ct values from one or more control genes. Fold-expression differences relative to untreated cells are determined using the 2^−ΔΔCt method as previously described. […] Data are also evaluated for each gene with regard to sensitivity, maximally effective concentration of curcuminoid, response to Aβ, and overall magnitude of fold-expression changes. […]

[5] = human monocytic cells (U-937), curcumin plus Aβ

## O=C(/C=C(O)/C=C/c1ccc(O)cc1)/C=C/c1ccc(O)cc1 [Compound 1, 5-Hydroxy-1,7-bis-(4-hydroxy-phenyl)-hepta-1,4,6-trien-3-one, reference compound]
Anti-oxidant activity
  IC50: > 250 µM
TLR 5
  Relative ratio of TLR 5 transcription in AD patient / control PBMC's: TLR 5 +++ ((+++ to ++++) indicates a ratio of 2.0 and above)
MGAT3 [1]
  Relative ratio of MGAT3 transcription in AD patient / control PBMC's: ++ ((++) indicates a ratio of 1.5-2.0)
TLR 8
  Relative ratio of TLR 8 transcription in AD patient / control PBMC's: TLR 8 + ((+) indicates a ratio of 1.0-1.5)
Average solubility
  Avg. Solubility: insol
TLR 9
  Relative ratio of TLR 9 transcription in AD patient / control PBMC's: TLR 9 ++ ((++) indicates a ratio of 1.5-2.0)
[2]; water (aqueous solution), pH 7.4, read-out: Chemical stability t1/2 pH 7.4 (converted)
  half-life: 14 min
[2]; water, H2O, read-out: Chemical stability t1/2 H2O (converted)
  half-life: 60 min
TLR3; U-937, plus Aβ (FIG. 3)
  TLR3 expression response (in words): limited response
TLR3; [5]
  Relative gene expression TLR3, increased expression relative to control cells: + ((+) <20-fold)
TLR 7
  Relative ratio of TLR 7 transcription in AD patient / control PBMC's: TLR 7 ++ ((++) indicates a ratio of 1.5-2.0)
[3]; U-937, 100 μM H2O2, BDC 0.1-10 nM, Trypan-blue
  2-hour cell survival rate: up to 90%
[3]; U-937, in combination with H2O2
  Cell viability above 0.1-10 nM concentration range: decreased
VDR; human monocytes, plus Aβ
  VDR normalized expression response (in words): modest increases
VDR; [5]
  Relative gene expression VDR, increased expression relative to control cells: + ((+) <20-fold)
MGAT3 [4]
  Relative gene expression MGAT3, increased expression relative to control cells: + ((+) <20-fold)
TLR4
  Relative gene expression TLR4, increased expression relative to control cells: + ((+) <20-fold)
